US20030044356A1, “Composition for nasal solution sprays having effective component of 1,2,3,9-tetrahydro-9-methyl-3-[(2-methyl-1H-imidazol-1-yl)methyl]-4H-carbazol-4-one)” (priority 2001, published 2003)
Like-named read-outs stand apart in the source and are kept apart here.

How the values were obtained:
[1] = Comparison of bioavailability after nasal, intravenous and oral administration; type: in vivo, Sprague-Dawley male rats; conditions: rats, 2 mg/kg; for Cmax / Tmax / AUC(0-t): male, Sprague-Dawley, rat, in vivo; for AUC(0-t): read-out: AUC0-2hr
Protocol: Twenty four (24) white rats (body weight 250-300 g, Sprague-Dawley male rats) were classified into 3 groups, namely 6, 11 and 7 rats. After nasal, intravenous and oral administration to each group of rats, the bioavailability according to the different routes of administration was compared.
Ondansetron hydrochloride was dissolved in the composition obtained in Formulation Example for nasal administration, in 0.9% saline for intravenous administration, and in purified water for oral administration as vehicles, respectively. Each 2 mg/kg of the solutions was administered thereby. The blood samples were collected at the predetermined time intervals to analyze the concentration of ondansetron hydrochloride in the plasma. The bioavailibity parameters were calculated from the assay results.

[2] = type: in vitro ADME; conditions: female, New Zealand White, rabbit
From the text: (§1) The results are shown in below Table 2.

[3] = Test for intranasal stability of active ingredient in nasal mucosa extract; conditions: 37° C.; for Residual Concentration: 200 μg/mL added
Protocol: The fresh nasal mucosa excised from a rabbit (body weight 3.0 kg, New Zealand White female rabbit) was mounted to the Valia-Chien permeation system maintained at a constant temperature of 37° C. Each of the donor and receptor half-cells was filled with each 3.5 mL of saline, maintained at the constant temperature for 4 hours while stirring with a magnetic star-head bar, and then both extracts from the half-cells were combined and used as nasal mucosa extracts.
Ondansetron hydrochloride (200 μg/mL) was added to the obtained nasal mucosa extract, and then maintained at the temperature of 37° C. for 4 hours while gently shaking in order to confirm the physiochemical or enzymatic stability of ondansetron hydrochloride in a nasal cavity.

[4] = Permeation through excised rectal mucosa; type: in vitro ADME, rabbit
From the text: as §1

[5] = Permeation through excised duodenal mucosa; type: in vitro ADME, rabbit
From the text: as §1

[6] = Permeation through excised colonic mucosa; type: in vitro ADME, rabbit
From the text: as §1

[7] = inhaled or intranasal, nasal, in composition of Formulation Example

Cc1nccn1CC1CCc2c(c3ccccc3n2C)C1=O.Cl.O.O (stereo not shown) [ondansetron hydrochloride, 1,2,3,9-tetrahydro-9-methyl-3-[(2-methyl-1H-imidazol-1-yl)methyl]-4H-carbazol-4-one hydrochloride dihydrate]
Cmax [1, 7]: 49.4 ± 18.7 ng/mL
Tmax [1, 7]: 9.4 min
AUC(0-t) [1, 7]: 53.2 ± 9.5 ng·h/mL
AUC(0-t) ([1]; IV injection, in 0.9% saline): 51.1 ± 7.4 ng·h/mL
Cmax ([1]; oral, in purified water): 29.7 ± 10.6 ng/mL
Tmax ([1]; oral, in purified water): 11.8 min
AUC(0-t) ([1]; oral, in purified water): 24.9 ± 12.6 ng·h/mL
AUC0-2 hr in nasal administration higher than that in oral administration [1]: 2.1 times
Cmax in oral administration lower than that in nasal administration [1]: 1.7 times
Cumulative Amounts ([2]; 0.333 hr): 68.2 ± 4.7 μg/cm^2
permeation rate through nasal mucosa relative to colonic mucosa ([2]; 30 min): 7.5 times
permeation rate through nasal mucosa relative to duodenal mucosa ([2]; 30 min): 7.2 times
permeation rate through nasal mucosa relative to rectal mucosa ([2]; 30 min): 15.8 times
Cumulative Amounts ([2]; 0.5 hr): 106.8 ± 14.9 μg/cm^2
Cumulative Amounts ([2]; 1 hr): 180.5 ± 12.4 μg/cm^2
Cumulative Amounts ([2]; 1.5 hr): 261.5 ± 15.1 μg/cm^2
Cumulative Amounts ([2]; 2 hr): 289.3 ± 23.5 μg/cm^2
Cumulative Amounts ([2]; 3 hr): 414.6 ± 22.6 μg/cm^2
Cumulative Amounts ([2]; 4 hr): 559.4 ± 28.2 μg/cm^2
Residual Concentration ([3]; 0 hr): 198.6 ± 1.3 µg/mL
Residual Concentration ([3]; 1 hr): 199.0 ± 5.2 µg/mL
Residual Concentration ([3]; 2 hr): 203.5 ± 3.0 µg/mL
Residual Concentration ([3]; 3 hr): 196.9 ± 0.6 µg/mL
Residual Concentration ([3]; 4 hr): 197.9 ± 9.6 µg/mL
degradation in nasal mucosa extract ([3]; for 4 hours): not nearly degraded
Cumulative Amounts ([4]; 0.5 hr): 6.7 ± 0.1 μg/cm^2
Cumulative Amounts ([4]; 1.0 hr): 9.6 ± 0.9 μg/cm^2
Cumulative Amounts ([4]; 2.0 hr): 19.3 ± 5.8 μg/cm^2
Cumulative Amounts ([4]; 4.0 hr): 54.1 ± 6.7 μg/cm^2
Cumulative Amounts ([4]; 6.0 hr): 164.2 ± 9.2 μg/cm^2
Cumulative Amounts ([5]; 0.5 hr): 14.8 ± 3.5 μg/cm^2
Cumulative Amounts ([5]; 1.0 hr): 35.4 ± 8.2 μg/cm^2
Cumulative Amounts ([5]; 2.0 hr): 94.6 ± 23.9 μg/cm^2
Cumulative Amounts ([5]; 4.0 hr): 280.1 ± 43.2 μg/cm^2
Cumulative Amounts ([5]; 6.0 hr): 453.1 ± 36.3 μg/cm^2
Cumulative Amounts ([6]; 0.5 hr): 14.3 ± 2.2 μg/cm^2
Cumulative Amounts ([6]; 1.0 hr): 36.5 ± 7.8 μg/cm^2
Cumulative Amounts ([6]; 2.0 hr): 112.1 ± 14.6 μg/cm^2
Cumulative Amounts ([6]; 4.0 hr): 294.8 ± 14.7 μg/cm^2
Cumulative Amounts ([6]; 6.0 hr): 438.9 ± 27.2 μg/cm^2
